According to US20240109865A1, “INDAZOLE COMPOUNDS AS KINASE INHIBITORS” (TYRA BIOSCIENCES, INC., priority 2020, published 2024):

Columns and labels:
Test in all cases: Kinase assay, binding constants (Kd), kinase-tagged T7 phage, qPCR
FGFR3 = FGFR3 (Homo sapiens (Human), UniProt P22607)
Method in brief: (§1)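 Using T7 phage lysates from BL21-derived E. coli, compounds at 0.9% final DMSO competed for kinase binding to ligand-bearing magnetic beads. After elution, qPCR measured remaining kinase, and Kds were fitted by non-linear least squares with the Hill slope fixed at −1.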

FGFR2 = FGFR2 (Homo sapiens (Human), UniProt P21802)
FGFR2, sequence (P21802 22-821): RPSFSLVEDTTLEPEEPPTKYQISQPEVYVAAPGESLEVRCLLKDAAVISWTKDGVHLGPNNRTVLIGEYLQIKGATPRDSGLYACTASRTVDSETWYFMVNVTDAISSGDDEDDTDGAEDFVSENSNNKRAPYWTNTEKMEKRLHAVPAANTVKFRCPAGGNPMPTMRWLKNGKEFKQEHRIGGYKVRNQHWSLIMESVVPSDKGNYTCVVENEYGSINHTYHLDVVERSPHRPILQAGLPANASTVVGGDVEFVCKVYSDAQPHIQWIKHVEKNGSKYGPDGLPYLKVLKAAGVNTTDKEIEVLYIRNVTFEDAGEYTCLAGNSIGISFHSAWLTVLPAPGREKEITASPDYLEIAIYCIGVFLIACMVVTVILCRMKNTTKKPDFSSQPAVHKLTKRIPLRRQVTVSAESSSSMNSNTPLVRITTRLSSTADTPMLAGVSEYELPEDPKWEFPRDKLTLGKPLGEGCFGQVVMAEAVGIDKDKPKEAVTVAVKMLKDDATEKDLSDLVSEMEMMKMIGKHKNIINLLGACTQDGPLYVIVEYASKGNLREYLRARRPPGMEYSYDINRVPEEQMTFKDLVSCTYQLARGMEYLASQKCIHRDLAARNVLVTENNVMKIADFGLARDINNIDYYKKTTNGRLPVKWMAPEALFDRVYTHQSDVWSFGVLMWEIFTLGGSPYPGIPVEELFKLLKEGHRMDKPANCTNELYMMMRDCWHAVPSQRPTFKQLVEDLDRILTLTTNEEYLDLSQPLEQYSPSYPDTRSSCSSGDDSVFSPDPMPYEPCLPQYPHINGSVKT
Method in brief: as §1

FGFR3 (V555M) = FGFR3 (V555M) (Homo sapiens (Human), UniProt P22607, V555M); conditions: V555M mutant
FGFR3 (V555M), sequence (P22607 23-806 V555M): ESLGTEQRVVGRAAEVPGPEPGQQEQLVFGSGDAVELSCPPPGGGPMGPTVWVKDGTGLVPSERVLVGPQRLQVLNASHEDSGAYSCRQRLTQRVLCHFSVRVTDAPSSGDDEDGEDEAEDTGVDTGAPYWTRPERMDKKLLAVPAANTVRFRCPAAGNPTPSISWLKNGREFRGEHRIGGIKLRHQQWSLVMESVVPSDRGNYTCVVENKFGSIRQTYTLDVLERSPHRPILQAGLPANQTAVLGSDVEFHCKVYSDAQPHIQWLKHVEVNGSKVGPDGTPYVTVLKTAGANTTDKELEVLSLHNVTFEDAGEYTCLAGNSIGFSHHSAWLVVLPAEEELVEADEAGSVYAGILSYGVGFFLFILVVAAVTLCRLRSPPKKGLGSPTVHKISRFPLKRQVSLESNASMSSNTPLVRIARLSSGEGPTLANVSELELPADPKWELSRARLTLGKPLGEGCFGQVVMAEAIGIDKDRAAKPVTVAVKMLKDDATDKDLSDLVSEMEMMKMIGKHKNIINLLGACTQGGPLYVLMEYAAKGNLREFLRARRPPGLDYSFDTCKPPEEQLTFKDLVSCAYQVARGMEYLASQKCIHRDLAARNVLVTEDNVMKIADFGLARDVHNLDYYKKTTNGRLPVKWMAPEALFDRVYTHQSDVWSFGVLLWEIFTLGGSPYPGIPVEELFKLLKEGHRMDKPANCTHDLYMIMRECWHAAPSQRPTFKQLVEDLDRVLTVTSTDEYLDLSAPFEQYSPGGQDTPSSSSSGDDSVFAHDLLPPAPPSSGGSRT
Method in brief: as §1

FGFR1 = FGFR1 (Homo sapiens (Human), UniProt P11362)
FGFR1, sequence (P11362 22-822): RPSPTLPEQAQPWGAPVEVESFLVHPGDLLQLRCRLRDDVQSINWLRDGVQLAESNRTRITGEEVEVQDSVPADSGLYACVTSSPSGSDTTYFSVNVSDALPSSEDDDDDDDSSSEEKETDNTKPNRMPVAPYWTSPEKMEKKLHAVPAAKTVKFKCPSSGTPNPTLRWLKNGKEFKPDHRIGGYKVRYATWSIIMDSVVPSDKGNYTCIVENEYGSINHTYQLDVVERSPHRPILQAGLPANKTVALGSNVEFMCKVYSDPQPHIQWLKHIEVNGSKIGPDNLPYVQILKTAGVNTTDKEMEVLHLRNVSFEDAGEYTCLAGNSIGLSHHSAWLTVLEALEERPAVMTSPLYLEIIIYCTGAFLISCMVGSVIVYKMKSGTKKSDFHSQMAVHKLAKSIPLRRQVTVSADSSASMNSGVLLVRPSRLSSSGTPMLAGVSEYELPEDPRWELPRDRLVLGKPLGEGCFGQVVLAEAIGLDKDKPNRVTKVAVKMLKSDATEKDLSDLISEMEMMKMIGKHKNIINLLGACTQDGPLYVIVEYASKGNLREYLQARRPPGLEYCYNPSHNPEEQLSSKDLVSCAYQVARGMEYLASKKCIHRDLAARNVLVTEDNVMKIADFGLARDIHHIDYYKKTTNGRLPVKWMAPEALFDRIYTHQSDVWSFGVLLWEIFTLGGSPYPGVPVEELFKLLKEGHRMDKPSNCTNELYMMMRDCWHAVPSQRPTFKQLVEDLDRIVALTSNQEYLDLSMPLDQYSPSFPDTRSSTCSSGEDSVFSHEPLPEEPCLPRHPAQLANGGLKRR
Method in brief: as §1

FGFR4 = FGFR4 (Homo sapiens (Human), UniProt P22455)
FGFR4, sequence (P22455 22-802): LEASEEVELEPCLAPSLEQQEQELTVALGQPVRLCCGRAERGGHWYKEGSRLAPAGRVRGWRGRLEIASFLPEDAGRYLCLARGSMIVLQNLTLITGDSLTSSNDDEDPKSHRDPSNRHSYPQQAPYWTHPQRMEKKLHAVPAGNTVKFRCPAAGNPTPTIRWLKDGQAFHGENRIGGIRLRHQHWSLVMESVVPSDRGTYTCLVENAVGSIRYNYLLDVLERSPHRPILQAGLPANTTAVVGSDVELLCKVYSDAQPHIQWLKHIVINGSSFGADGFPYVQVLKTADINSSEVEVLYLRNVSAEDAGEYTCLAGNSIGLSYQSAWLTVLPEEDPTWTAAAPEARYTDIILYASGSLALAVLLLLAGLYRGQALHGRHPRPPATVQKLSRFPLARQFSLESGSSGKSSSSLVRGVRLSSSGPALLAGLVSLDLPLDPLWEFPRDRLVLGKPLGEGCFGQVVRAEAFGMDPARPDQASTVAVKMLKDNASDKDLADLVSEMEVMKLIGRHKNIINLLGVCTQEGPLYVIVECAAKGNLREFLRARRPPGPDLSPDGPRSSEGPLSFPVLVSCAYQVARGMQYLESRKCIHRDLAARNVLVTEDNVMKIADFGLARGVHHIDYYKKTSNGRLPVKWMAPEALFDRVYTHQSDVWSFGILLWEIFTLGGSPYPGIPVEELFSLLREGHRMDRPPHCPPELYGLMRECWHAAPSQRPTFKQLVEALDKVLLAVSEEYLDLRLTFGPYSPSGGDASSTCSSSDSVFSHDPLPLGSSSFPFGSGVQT
Method in brief: as §1

FGFR3, sequence (P22607 23-806): as the sequence (P22607 23-806 V555M) above, with M533V counted along it

Row | SMILES | Kd (FGFR3) [nM] | Kd (FGFR2) [nM] | Kd (FGFR3 (V555M)) [nM] | Kd (FGFR1) [nM] | Kd (FGFR4) [nM]
1 | Cc1cnnc(C)c1[C@@H](C)Oc1ccc2[nH]nc(-c3cnc(N4CC5CC(C4)N5CC(C)(C)O)c(C#N)c3)c2c1 [Example 312, 5-(5-((R)-1-(3,5-dimethylpyridazin-4-yl)ethoxy)-1H-indazol-3-yl)-2-(6-(2-hydroxy-2-methylpropyl)-3,6-diazabicyclo[3.1.1]heptan-3-yl)nicotinonitrile] | 1 to 20 | 1 to 20 | 1 to 20 | 1 to 20 | 1 to 20
2 | Cc1cnnc(C)c1[C@@H](C)Oc1ccc2[nH]nc(-c3cnc(N4CC[C@@H](O)C4)c(C#N)c3)c2c1 [Example 313, 5-(5-((R)-1-(3,5-dimethylpyridazin-4-yl)ethoxy)-1H-indazol-3-yl)-2-((R)-3-hydroxypyrrolidin-1-yl)nicotinonitrile] | 20 to 100 | 20 to 100 | 1 to 20 | 100 to 300 | 1 to 20
3 | COc1cc2[nH]nc(-c3ccc(N4CC5CC(C4)N5)nc3)c2cc1O[C@H](C)c1c(C)cnnc1C [Example 314, 3-(5-(5-((R)-1-(3,5-dimethylpyridazin-4-yl)ethoxy)-6-methoxy-1H-indazol-3-yl)pyridin-2-yl)-3,6-diazabicyclo[3.1.1]heptane] | 1 to 20 | 1 to 20 | 1 to 20 | 1 to 20 | 1 to 20
4 | COc1cc2[nH]nc(-c3ccc(N4CCCC4)nc3)c2cc1O[C@H](C)c1c(C)cnnc1C [Example 315, (R)-5-(1-(3,5-dimethylpyridazin-4-yl)ethoxy)-6-methoxy-3-(6-(pyrrolidin-1-yl)pyridin-3-yl)-1H-indazole] | 1 to 20 | 1 to 20 | 1 to 20 | 1 to 20 | 1 to 20
5 | COc1cc2[nH]nc(-c3cnc(N4CC[C@H](C(C)(C)O)C4)c(C#N)c3)c2cc1O[C@H](C)c1c(C)cnnc1C [Example 316, 5-(5-((R)-1-(3,5-dimethylpyridazin-4-yl)ethoxy)-6-methoxy-1H-indazol-3-yl)-2-((S)-3-(2-hydroxypropan-2-yl)pyrrolidin-1-yl)nicotinonitrile] | 1 to 20 | 20 to 100 | 1 to 20 | 20 to 100 | 1 to 20
6 | COc1cc2[nH]nc(-c3cnc(N4CC5CC(C4)N5)c(C)c3)c2cc1O[C@H](C)c1c(C)cnnc1C [Example 317, 3-(5-(5-((R)-1-(3,5-dimethylpyridazin-4-yl)ethoxy)-6-methoxy-1H-indazol-3-yl)-3-methylpyridin-2-yl)-3,6-diazabicyclo[3.1.1]heptane] | 1 to 20 | 1 to 20 | 1 to 20 | 1 to 20 | 1 to 20
7 | Cc1cnnc(C)c1[C@@H](C)Oc1ccc2[nH]nc(-c3cnc(N4CC(O)C4)c(C#N)c3)c2c1 [Example 318, (R)-5-(5-(1-(3,5-dimethylpyridazin-4-yl)ethoxy)-1H-indazol-3-yl)-2-(3-hydroxyazetidin-1-yl)nicotinonitrile] | 20 to 100 | 100 to 300 | 1 to 20 | 100 to 300 | 1 to 20
8 | COc1cc2[nH]nc(-c3cnc(N4CC[C@@H](O)C4)c(C#N)c3)c2cc1O[C@H](C)c1c(C)cnnc1C [Example 319, 5-(5-((R)-1-(3,5-dimethylpyridazin-4-yl)ethoxy)-6-methoxy-1H-indazol-3-yl)-2-((R)-3-hydroxypyrrolidin-1-yl)nicotinonitrile] | 1 to 20 | 20 to 100 | 1 to 20 | 20 to 100 | 1 to 20
9 | COc1cc2[nH]nc(-c3cnc(N4CC(O)C4)c(C#N)c3)c2cc1O[C@H](C)c1c(C)cnnc1C [Example 320, (R)-5-(5-(1-(3,5-dimethylpyridazin-4-yl)ethoxy)-6-methoxy-1H-indazol-3-yl)-2-(3-hydroxyazetidin-1-yl)nicotinonitrile] | 20 to 100 | 20 to 100 | 1 to 20 | 20 to 100 | 1 to 20
10 | COc1cc2[nH]nc(-c3cnc(N4CC[C@@H](C(C)(C)O)C4)c(C#N)c3)c2cc1O[C@H](C)c1c(C)cnnc1C [Example 321, 5-(5-((R)-1-(3,5-dimethylpyridazin-4-yl)ethoxy)-6-methoxy-1H-indazol-3-yl)-2-((R)-3-(2-hydroxypropan-2-yl)pyrrolidin-1-yl)nicotinonitrile] | 1 to 20 | 1 to 20 | 1 to 20 | 20 to 100 | 1 to 20
11 | COc1cc2[nH]nc(-c3cnc(N4CCC4)c(C#N)c3)c2cc1O[C@H](C)c1c(C)cnnc1C [Example 322, (R)-2-(azetidin-1-yl)-5-(5-(1-(3,5-dimethylpyridazin-4-yl)ethoxy)-6-methoxy-1H-indazol-3-yl)nicotinonitrile] | 20 to 100 | 20 to 100 | 1 to 20 | 100 to 300 | 1 to 20
12 | COc1cc(-c2n[nH]c3ccc(O[C@H](C)c4c(C)cnnc4C)cc23)cnc1N1CC2CC(C1)N2CC(C)(C)O [Example 323, 1-(3-(5-(5-((R)-1-(3,5-dimethylpyridazin-4-yl)ethoxy)-1H-indazol-3-yl)-3-methoxypyridin-2-yl)-3,6-diazabicyclo[3.1.1]heptan-6-yl)-2-methylpropan-2-ol] | > 300 | > 300 | 20 to 100 | > 300 | 1 to 20
13 | COc1cc2[nH]nc(-c3cnc(N4CC5(COC5)C4)c(C#N)c3)c2cc1O[C@H](C)c1c(C)cnnc1C [Example 324, (R)-5-(5-(1-(3,5-dimethylpyridazin-4-yl)ethoxy)-6-methoxy-1H-indazol-3-yl)-2-(2-oxa-6-azaspiro[3.3]heptan-6-yl)nicotinonitrile] | 20 to 100 | 20 to 100 | 1 to 20 | 20 to 100 | 1 to 20
14 | Cc1cnnc(C)c1[C@@H](C)Oc1ccc2[nH]nc(-c3cnc(N4CCN5C(=O)NCC5C4)c(C#N)c3)c2c1 (stereo partly drawn) [Example 325, 5-(5-((R)-1-(3,5-dimethylpyridazin-4-yl)ethoxy)-1H-indazol-3-yl)-2-(3-oxohexahydroimidazo[1,5-a]pyrazin-7(1H)-yl)nicotinonitrile] | 1 to 20 | 1 to 20 | 1 to 20 | 20 to 100 | 1 to 20
15 | COc1cc2[nH]nc(-c3cnc(N4CC(O)C4)c(C#N)c3)c2cc1O[C@H](C)c1c(Cl)cncc1Cl [Example 326, 5-[5-[(1R)-1-(3,5-dichloro-4-pyridyl)ethoxy]-6-methoxy-1H-indazol-3-yl]-2-(3-hydroxyazetidin-1-yl)pyridine-3-carbonitrile] | 1 to 20 | 20 to 100 | 1 to 20 | 20 to 100 | 1 to 20
16 | COc1cc2[nH]nc(-c3cnc(N4CC[C@H](O)C4)c(C#N)c3)c2cc1O[C@H](C)c1c(Cl)cncc1Cl [Example 327, 5-[5-[(1R)-1-(3,5-dichloro-4-pyridyl)ethoxy]-6-methoxy-1H-indazol-3-yl]-2-[(3S)-3-hydroxypyrrolidin-1-yl]pyridine-3-carbonitrile] | 1 to 20 | 1 to 20 | 1 to 20 | 1 to 20 | 1 to 20
17 | COc1cc(-c2n[nH]c3ccc(O[C@H](C)c4c(C)cnnc4C)cc23)cnc1N1CCN2C(=O)NCC2C1 (stereo partly drawn) [Example 328, 7-(5-(5-((R)-1-(3,5-dimethylpyridazin-4-yl)ethoxy)-1H-indazol-3-yl)-3-methoxypyridin-2-yl)hexahydroimidazo[1,5-a]pyrazin-3(2H)-one] | 100 to 300 | 100 to 300 | 20 to 100 | 100 to 300 | 1 to 20
18 | C[C@@H](Oc1ccc2[nH]nc(-c3cnc(N4CC5(CN(CC(F)(F)F)C5)C4)c(C#N)c3)c2c1)c1c(Cl)cncc1Cl [Example 329, (R)-5-(5-(1-(3,5-dichloropyridin-4-yl)ethoxy)-1H-indazol-3-yl)-2-(6-(2,2,2-trifluoroethyl)-2,6-diazaspiro[3.3]heptan-2-yl)nicotinonitrile] | 20 to 100 | > 300 | 1 to 20 | 100 to 300 | 1 to 20
19 | C[C@@H](Oc1ccc2[nH]nc(-c3cnc(N4CC5(CN(CC(F)F)C5)C4)c(C#N)c3)c2c1)c1c(Cl)cncc1Cl [Example 330, (R)-5-(5-(1-(3,5-dichloropyridin-4-yl)ethoxy)-1H-indazol-3-yl)-2-(6-(2,2-difluoroethyl)-2,6-diazaspiro[3.3]heptan-2-yl)nicotinonitrile] | 20 to 100 | 100 to 300 | 1 to 20 | 100 to 300 | 1 to 20
20 | C[C@@H](Oc1ccc2[nH]nc(-c3cnc(N4CC5C(O)C5C4)c(C#N)c3)c2c1)c1c(Cl)cncc1Cl (stereo partly drawn) [Example 331, 5-(5-((R)-1-(3,5-dichloropyridin-4-yl)ethoxy)-1H-indazol-3-yl)-2-(6-hydroxy-3-azabicyclo[3.1.0]hexan-3-yl)nicotinonitrile] | 1 to 20 | 100 to 300 | 1 to 20 | 100 to 300 | 1 to 20
21 | C[C@@H](Oc1ccc2[nH]nc(-c3cnc(N4CCC[C@@H]4CO)c(C#N)c3)c2c1)c1c(Cl)cncc1Cl [Example 332, 5-(5-((R)-1-(3,5-dichloropyridin-4-yl)ethoxy)-1H-indazol-3-yl)-2-((R)-2-(hydroxymethyl)pyrrolidin-1-yl)nicotinonitrile] | 1 to 20 | 20 to 100 | 1 to 20 | 20 to 100 | 1 to 20
22 | COc1cc2[nH]nc(-c3cnc(N4CCCC4)c(C#N)c3)c2cc1O[C@H](C)c1c(Cl)cncc1Cl [Example 333, 5-[5-[(1R)-1-(3,5-dichloro-4-pyridyl)ethoxy]-6-methoxy-1H-indazol-3-yl]-2-pyrrolidin-1-yl-pyridine-3-carbonitrile] | 20 to 100 | 100 to 300 | 1 to 20 | 100 to 300 | 1 to 20
